Laboratory results as given in patent US6462055B2, “Alpha-methylbenzyl-containing thiourea inhibitors of herpes viruses containing a phenylenediamine group” (Wyeth, priority 1998, dated 2002).
Values after ≈ are worked out from the molar mass of the structure shown.

Legend:
[1] = tested on: HCMV recombinant mutant virus (RV145); assay: microbe, parasite or virus in culture; assay type: cell-based, human cytomegalovirus; conditions: for IC50: Human betaherpesvirus 5, read-out: IC50 ug/ml HCMV, HCMV
Method in brief: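 Human foreskin fibroblasts infected with HCMV RV145 carrying a viral-promoter-driven beta-glucuronidase gene, in presence of compound. At 96 h post-infection, lysates assayed for beta-glucuronidase with colorimetric or fluorogenic glucuronide substrate as replication read-out. IC50 estimated from varying inhibitor amounts.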

HSV-1 = assay: HSV Antiviral (ELISA) Assay in Vero cells; assay type: cell-based, herpes simplex virus type 1; conditions: HSV-1, Vero cells; for IC50: Human alphaherpesvirus 1, read-out: IC50 (ug/ml) HSV
Method in brief: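 Viral replication was quantified by cell-fixed ELISA for HSV glycoprotein D, using a β-galactosidase reporter and fluorogenic umbelliferyl substrate, about 24 h after HSV-1 infection (MOI 0.006) of Vero cells. Compounds, at several concentrations, were added 30 min pre-infection. IC50 was derived from fluorescence relative to the compound-free signal.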

VZV strain Ellen = assay: VZV Antiviral (ELISA) Assay in human foreskin fibroblast cells; assay type: cell-based, varicella-zoster virus; conditions: for IC50 / inhibition at 10 µg/mL: Human alphaherpesvirus 3, Fibroblast; for IC50: read-out: IC50 (ug/ml) VZV; for inhibition at 10 µg/mL: read-out: % inhibition 10 ug/ml VZV, 10 ug/ml
Method in brief: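 Antiviral IC50 is derived by comparing fluorescence with and without compound after a three-day culture of VZV-infected plus uninfected foreskin fibroblasts. Replication is quantified by ELISA against glycoprotein II, using a β-galactosidase secondary and methyl umbelliferyl-β-D-galactoside.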

SMILES | IC50 ug/ml HCMV [1] [µg/mL] | IC50 (ug/ml) HSV (HSV-1) [µg/mL] | IC50 (ug/ml) VZV (VZV strain Ellen) [µg/mL] | % inhibition 10 ug/ml VZV (VZV strain Ellen) [%] | IC50 [1] [µg/mL] | IC50 (HSV-1) [µg/mL] | IC50 (VZV strain Ellen) [µg/mL] | inhibition at 10 µg/mL (VZV strain Ellen) [%]
CC(=O)Nc1cccc(NC(=S)Nc2ccc(NC(=O)c3ccccc3F)cc2)c1 [Example 477] | >10 | >10 | >10 | 15 | – | – | – | –
COc1cc(OC)c(NC(=S)Nc2ccc(NC(=O)c3ccccc3F)cc2Cl)cc1Cl [Example 355] | >10 | 0.035 (≈ 0.0708 µM) | >10 | 40 | – | – | – | –
O=C(Nc1ccc(NC(=S)NCCc2ccc(F)cc2)cc1)c1ccccc1F [Example 553] | – | – | – | – | > 0.5 | > 10 | 7 (≈ 17 µM) | –
COc1cccc(C(=O)Nc2ccc(NC(=S)Nc3ccc(C)c(Cl)c3)cc2)c1 [Example 232] | >10 | 1 (≈ 2.35 µM) | >10 | 21 | – | – | – | –
O=C(Nc1ccc(NC(=S)Nc2ccc(OC(F)(F)F)c(Br)c2)cc1)c1ccccc1F [Example 549] | >10 | >10 | >10 | – | – | – | – | –
O=C(Nc1ccc(NC(=S)Nc2ccc(Cl)c(Cl)c2)cc1)c1ccccc1F [Example 912, N-{4-[3-(3,4-Dichloro-phenyl)-thioureido]-phenyl}-2-fluoro-benzamide] | – | – | – | – | > 10 | 8 (≈ 18.4 µM) | > 10 | 21
COc1c(Cl)cc(NC(=S)Nc2ccc(NC(=O)c3ccc(F)cc3)cc2)cc1Cl [Example 133] | 0.6 (≈ 1.29 µM) | 7 (≈ 15.1 µM) | >10 | 36 | – | – | – | –
O=C(Nc1ccc(NC(=S)Nc2ccc(Cl)c(C(F)(F)F)c2)cc1)c1ccccc1F [Example 244] | >10 | >10 | >10 | 18 | – | – | – | –
Cc1cccc(C(C)NC(=S)Nc2ccc(NC(=O)c3ccccc3F)cc2)c1 (centres unmarked) [Example 776] | 0.9 (≈ 2.21 µM) | >10 | >7.5 | – | – | – | – | –
Cc1ccccc1C(=O)Nc1ccc(NC(=S)Nc2ccc(N(C)C3CCN(C)CC3)c(Cl)c2)cc1 [Example 375] | 1.5 (≈ 2.87 µM) | 5 (≈ 9.58 µM) | 7 (≈ 13.4 µM) | 95 | – | – | – | –
O=C(Nc1ccc(NC(=S)NCCCc2ccccc2)cc1)c1ccccc1F [Example 628] | >10 | >10 | 10 (≈ 24.5 µM) | – | – | – | – | –
O=C(Nc1ccc(NC(=S)NCc2ccccc2)cc1)c1ccccc1F [Example 536] | >10 | >10 | >10 | – | – | – | – | –
COc1ccccc1C(=O)Nc1ccc(NC(=S)NC(C)c2ccc(Br)cc2)cc1 (centres unmarked) [Example 1019, N-(4-{3-[1-(4-Bromo-phenyl)-ethyl]-thioureido}-phenyl)-2-methoxy-benzamide] | – | – | – | – | 2.6 (≈ 5.37 µM) | > 10 | 0.05 (≈ 0.103 µM) | –
COc1cc(OC)c(NC(=S)Nc2ccc(NC(=O)c3cccc(C(=O)O)c3)cc2)cc1Cl [Example 209] | >50 | >50 | >10 | 22 | – | – | – | –
O=C(Nc1ccc(NC(=S)Nc2cc(Cl)ccc2Cl)cc1)c1ccccc1F [Example 931, N-{4-[3-(2,5-Dichloro-phenyl)-thioureido]-phenyl}-2-fluoro-benzamide] | – | – | – | – | > 10 | 4 (≈ 9.21 µM) | > 10 | 51
O=C(CN1CCCCC1)Nc1ccc(NC(=S)Nc2ccc(NC(=O)c3ccccc3F)cc2)cc1Cl [Example 364] | >10 | >10 | >15 | 73 | – | – | – | –

SMILES | IC50 ug/ml HCMV [1] [µg/mL] | IC50 (ug/ml) HSV (HSV-1) [µg/mL] | IC50 (ug/ml) VZV (VZV strain Ellen) [µg/mL] | % inhibition 10 ug/ml VZV (VZV strain Ellen) [%] | IC50 [1] [µg/mL] | IC50 (HSV-1) [µg/mL] | IC50 (VZV strain Ellen) [µg/mL] | inhibition at 10 µg/mL (VZV strain Ellen) [%]
COc1cc(OC)c(NC(=S)Nc2ccc(NC(=O)c3cccc4c3OCO4)cc2)cc1Cl [Example 255] | >10 | 1.2 (≈ 2.47 µM) | >10 | 0 | – | – | – | –
CC(NC(=S)Nc1ccc(NC(=O)c2ccccc2)cc1)c1ccc(F)cc1 (centres unmarked) [Example 758] | – | – | – | – | > 10 | > 10 | > 10 | –
CC(NC(=S)Nc1ccc(NC(=O)c2ccccc2F)cc1)c1ccccc1C(F)(F)F (centres unmarked) [Example 785] | – | – | – | – | > 2.2 | > 10 | > 7.5 | –
COc1cc(OC)c(NC(=S)Nc2ccc(NC(=O)c3ccc(F)c(F)c3F)cc2)cc1Cl [Example 192] | >10 | 0.5 (≈ 1.01 µM) | >10 | 14 | – | – | – | –
COCCOc1ccc(NC(=S)Nc2ccc(NC(=O)c3ccccc3F)cc2)cc1Cl [Example 996, N-(4-{3-[3-Chloro-4-(2-methoxy-ethoxy)-phenyl]-thioureido}-phenyl)-2-fluoro-benzamide] | – | – | – | – | > 10 | > 10 | 10 (≈ 21.1 µM) | –
COc1ccccc1C(=O)Nc1ccc(NC(=S)NC(C)c2ccc(C#N)cc2)cc1 (centres unmarked) [Example 1017, N-(4-{3-[1-(4-Cyano-phenyl)-ethyl]-thioureido}-phenyl)-2-methoxy-benzamide] | – | – | – | – | > 10 | > 10 | 0.3 (≈ 0.697 µM) | –
COc1cc(OC)c(NC(=S)Nc2ccc(NC(=O)c3ccccc3Br)cc2)cc1Cl [Example 142] | – | – | – | – | 10 (≈ 19.2 µM) | 0.4 (≈ 0.768 µM) | > 15 | 51
O=C(CN1CCCC1)Nc1ccc(NC(=S)Nc2ccc(NC(=O)c3ccccc3F)cc2)cc1Cl [Example 417] | >10 | 6 (≈ 11.4 µM) | >10 | 15 | – | – | – | –
CN(C)c1cccc(NC(=S)Nc2ccc(NC(=O)c3ccccc3F)cc2)c1 [Example 454] | 4 (≈ 9.79 µM) | 1.5 (≈ 3.67 µM) | >10 | 55 | – | – | – | –
CC(NC(=S)Nc1ccc(NC(=O)c2cc3ccccc3o2)cc1)c1ccc(F)cc1 (centres unmarked) [Example 980, Benzofuran-2-carboxylic acid (4-{3-[1-(4-fluoro-phenyl)-ethyl]-thioureido}-phenyl)-amide] | – | – | – | – | > 10 | > 10 | 0.15 (≈ 0.346 µM) | –
COc1ccc(NC(=S)Nc2ccc(NC(=O)c3ccccc3F)cc2)cc1C(F)(F)F [Example 998, 2-Fluoro-N-{4-[3-(4-methoxy-3-trifluoromethyl-phenyl)-thioureido]-phenyl}-benzamide] | – | – | – | – | > 10 | 3 (≈ 6.47 µM) | 5 (≈ 10.8 µM) | –
Cc1ccc(NC(=S)Nc2ccc(NC(=O)c3ccccc3F)cc2)cc1Cl [Example 231] | >10 | 0.5 (≈ 1.21 µM) | >10 | 11 | – | – | – | –
COc1cc(OC)c(NC(=S)Nc2ccc(NC(=O)c3c(F)c(F)c(F)c(F)c3F)cc2)cc1Cl [Example 193] | >10 | 1.5 (≈ 2.82 µM) | 3.8 (≈ 7.14 µM) | 106 | – | – | – | –
CC(NC(=S)Nc1ccc(NC(=O)c2ccccc2F)cc1)c1ccccc1Br (centres unmarked) [Example 783] | 1.1 (≈ 2.33 µM) | >10 | 0.3 (≈ 0.635 µM) | – | – | – | – | –
COc1cc(OC)c(NC(=S)Nc2ccc(NC(=O)c3ccccc3C(=O)O)cc2)cc1Cl [Example 184] | >50 | >50 | >10 | – | – | – | – | –
O=C(Nc1ccc(NC(=S)NCc2cc(C(F)(F)F)cc(C(F)(F)F)c2)cc1)c1ccccc1F [Example 543] | 0.3 (≈ 0.582 µM) | >10 | >10 | – | – | – | – | –
